Source: patent US4341780A, “Substituted pyrido [1,2-a] pyrimidines useful as anti-allergic, anti-ulcer and anti-diabetic agents” (Farmitalia Carlo Erba S.p.A., priority 1979, dated 1982)

Tested on: passive cutaneous anaphylaxis (PCA)
Assay: IgE-mediated passive cutaneous anaphylaxis (PCA) test in rats, oral administration
Type: in vivo
Conditions: rat PCA, p.o., pretreatment time 15'; KB = dose reducing to one half the activity of the sensitizing serum; lower = more active
Source text: The compounds of the invention have anti-allergic activity, and are therefore useful in the prevention and treatment of all the affections of allergic origin, e.g. bronchial asthma, allergic rhinitis, hay fever, urticaria and dermatosis. The anti-allergic activity of the compounds of the invention is shown, e.g., by the first that they are active in the passive cutaneous anaphylaxis (PCA) test in rats, according to Goose J. and Blair A. M. J. N. (Immunology, 16, 749, 1969).
The activity data are expressed in terms of KB defined as the dose of active compound capable of reducing to one half the activity of the serum used for the sensitization:
B=dose of antagonist compound expressed in mg/kg;
DR=dose ratio: antilogarithm of the distance between the Log dose effect functions of the scrum with and without antagonist (J. H. Gaddum et al, Exp. Physiol., 1955, 40, 49).
The KB is adopted here because this value is independent both of the dose of the drug and the reagin concentration used for the sensitization.
The lower the KB value, the higher the anti-allergic activity.
The anti-allergic activity was determined e.g. by the inhibition of the IgE-mediated PCA according to Goose J. and Blair A. M. J. N. (Immunology, 16, 749, 1969) using homocytotropic antibodies raised in rats following the method of Mota I., Immunology, 7, 681, (1964).
The tested compounds were administered per os (p.o) 15 minutes before the administration of the antigen: at least 6 rats were used for each dose.
In the case of CCc1c(/C=C/c2ccccc2)nc2n(c1=O)C1CC1(C(=O)O)C=C2 (stereo not drawn) [K 13830, 2-trans-(2-phenyl-ethenyl)-3-ethyl-6,7-methylen-4-oxo-4H-pyrido[1,2-a]pyrimidine-7-carboxylic acid], the “Anti-allergic activity KB” value is reported as 1.15 mg/kg. In the case of O=C(O)c1cc(=O)c2c(OCC(O)COc3cccc4oc(C(=O)O)cc(=O)c34)cccc2o1 [Disodium Cromoglycate, reference compound], the “Anti-allergic activity KB” value is reported as greater than 200 mg/kg. For CCCc1c(/C=C/c2ccccc2)nc2ccc(C(=O)O)cn2c1=O [K 13808, 2-trans-(2-phenyl-ethenyl)-3-propyl-4-oxo-4H-pyrido[1,2-a]pyrimidine-7-carboxylic acid], the “Anti-allergic activity KB” value was 2.16 mg/kg. In the case of CCCc1c(/C=C/c2ccccc2)nc2n(c1=O)C1CC1(C(=O)O)C=C2 (stereo not drawn) [FCE 20188, 2-trans-(2-phenyl-ethenyl)-3-propyl-6,7-methylen-4-oxo-4H-pyrido[1,2-a]pyrimidine-7-carboxylic acid], the “Anti-allergic activity KB” value is reported as 2.34 mg/kg. In the case of CCCc1c(/C=C/c2ccccc2C)nc2ccc(C(=O)O)cn2c1=O [FCE 20099, 2-trans-[2-(2-methyl-phenyl)-ethenyl]-3-propyl-4-oxo-4H-pyrido[1,2-a]pyrimidine-7-carboxylic acid], the “Anti-allergic activity KB” value is reported as 2.02 mg/kg. In the case of CCCc1c(/C=C/c2cccc(OC)c2)nc2ccc(C(=O)O)cn2c1=O [FCE 20183, 2-trans-[2-(3-methoxy-phenyl)-ethenyl]-3-propyl-4-oxo-4H-pyrido[1,2-a]pyrimidine-7-carboxylic acid], the “Anti-allergic activity KB” value is reported as 1.48 mg/kg. In the case of CCc1c(/C=C/c2cccc(OC)c2)nc2n(c1=O)C1CC1(C(=O)O)C=C2 (stereo not drawn) [FCE 20509, 2-trans-[2-(3-methoxy-phenyl)-ethenyl]-3-ethyl-6,7-methylen-4-oxo-4H-pyrido[1,2-a]pyrimidine-7-carboxylic acid], the “Anti-allergic activity KB” value is reported as 0.61 mg/kg. For CCCc1c(/C=C/c2cccc(OC)c2OC)nc2n(c1=O)C1CC1(C(=O)O)C=C2 (stereo not drawn) [FCE 20461, 2-trans-[2-(2,3-dimethoxy-phenyl)-ethenyl]-3-propyl-6,7-methylen-4-oxo-4H-pyrido[1,2-a]pyrimidine-7-carboxylic acid], the “Anti-allergic activity KB” value was 1.22 mg/kg.

Tested on: not listed separately
Assay: approximate acute toxicity (LD50) in the mouse, per os
Conditions: in vivo, po, single administration of increasing doses, measured on the seventh day
Procedure: For example, the approximate acute toxicity (LD50) of the compound 2-trans-(2-phenyl-ethenyl)-3-propyl-4-oxo-4H-pyrido(1,2-a)pyrimidine-7-carboxylic acid in the mouse, determined with single adminstration of increasing doses and measured on the seventh day of treatment is per os higher than 800 mg/kg. Analogous toxicity data have been found for the other compounds of the invention.
CCCc1c(/C=C/c2ccccc2)nc2ccc(C(=O)O)cn2c1=O [K 13808, 2-trans-(2-phenyl-ethenyl)-3-propyl-4-oxo-4H-pyrido[1,2-a]pyrimidine-7-carboxylic acid] gave an LD50 at 168 h greater than 800 mg/kg.
